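Each compound was tested at five concentrations against cells in 96-well plates for 48 hours. TGI: concentration producing complete growth inhibition.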
Legend:
Assay in all cases: NCI-60 cell line screen, 48 h
NCI-H23 lung = system: NCI-H23 lung
TK-10 renal = system: TK-10 renal
NCI-H522 lung = system: NCI-H522 lung
SW-620 colon = system: SW-620 colon
LOX IMVI melanoma = system: LOX IMVI melanoma
MALME-3M melanoma = system: MALME-3M melanoma
OVCAR-5 ovarian = system: OVCAR-5 ovarian
SR leukemia = system: SR leukemia
SNB-75 CNS = system: SNB-75 CNS
EKVX NSCLC = system: EKVX NSCLC
SF-539 CNS = system: SF-539 CNS
OVCAR-4 ovarian = system: OVCAR-4 ovarian
OVCAR-3 ovarian = system: OVCAR-3 ovarian
PC-3 prostate = system: PC-3 prostate
SK-OV-3 ovarian = system: SK-OV-3 ovarian
SK-MEL-5 melanoma = system: SK-MEL-5 melanoma
NCI-H226 lung = system: NCI-H226 lung
ACHN renal = system: ACHN renal
KM12 colon = system: KM12 colon
NCI/ADR-RES ovarian = system: NCI/ADR-RES ovarian
T-47D breast = system: T-47D breast
RXF 393 renal = system: RXF 393 renal
SF-268 CNS = system: SF-268 CNS
MOLT-4 leukemia = system: MOLT-4 leukemia
SK-MEL-2 melanoma = system: SK-MEL-2 melanoma
HCC-2998 colon = system: HCC-2998 colon
UACC-62 melanoma = system: UACC-62 melanoma
MDA-MB-435 = system: MDA-MB-435
M14 melanoma = system: M14 melanoma
COLO 205 colon = system: COLO 205 colon
HCT-116 colon = system: HCT-116 colon
OVCAR-8 ovarian = system: OVCAR-8 ovarian
RPMI-8226 leukemia = system: RPMI-8226 leukemia
NCI-H460 lung = system: NCI-H460 lung
UO-31 renal = system: UO-31 renal
HCT-15 colon = system: HCT-15 colon
UACC-257 melanoma = system: UACC-257 melanoma
MCF7 breast = system: MCF7 breast
SF-295 CNS = system: SF-295 CNS
DU-145 prostate = system: DU-145 prostate
SNB-19 CNS = system: SNB-19 CNS
SN12C renal = system: SN12C renal
MDA-MB-231 breast = system: MDA-MB-231 breast
A549 NSCLC = system: A549 NSCLC
HS 578T breast = system: HS 578T breast
HT29 colon = system: HT29 colon
CAKI-1 renal = system: CAKI-1 renal
SK-MEL-28 melanoma = system: SK-MEL-28 melanoma
MDA-N = system: MDA-N
786-0 renal = system: 786-0 renal
U251 CNS = system: U251 CNS
A498 renal = system: A498 renal
HOP-62 NSCLC = system: HOP-62 NSCLC
HOP-92 NSCLC = system: HOP-92 NSCLC
IGROV1 ovarian = system: IGROV1 ovarian
CCRF-CEM leukemia = system: CCRF-CEM leukemia
K-562 leukemia = system: K-562 leukemia
HL-60(TB) leukemia = system: HL-60(TB) leukemia

In the case of `O=C(NC/C(Cl)=C/Cl)Nc1c2ccccc2nc2ccccc12`, the TGI (NCI-H23 lung) was > 100 µM, the TGI (TK-10 renal) was > 100 µM and the TGI (NCI-H522 lung) was > 100 µM. For the same compound, the TGI (SW-620 colon) was > 100 µM, the TGI (LOX IMVI melanoma) was > 100 µM and the TGI (MALME-3M melanoma) was > 100 µM. The TGI (OVCAR-5 ovarian) was > 100 µM, the TGI (SR leukemia) was > 100 µM and the TGI (SNB-75 CNS) was > 100 µM. The TGI (EKVX NSCLC) was > 100 µM, the TGI (SF-539 CNS) was 93.2 µM and the TGI (OVCAR-4 ovarian) was > 100 µM. The TGI (OVCAR-3 ovarian) was > 100 µM, the TGI (PC-3 prostate) was > 100 µM and the TGI (SK-OV-3 ovarian) was > 100 µM. The TGI (SK-MEL-5 melanoma) was > 100 µM, the TGI (NCI-H226 lung) was > 100 µM and the TGI (ACHN renal) was > 100 µM. The TGI (KM12 colon) was > 100 µM, the TGI (NCI/ADR-RES ovarian) was > 100 µM and the TGI (T-47D breast) was > 100 µM. For the same compound, the TGI (RXF 393 renal) was > 100 µM, the TGI (SF-268 CNS) was > 100 µM and the TGI (MOLT-4 leukemia) was > 100 µM. The TGI (SK-MEL-2 melanoma) was > 100 µM, the TGI (HCC-2998 colon) was > 100 µM and the TGI (UACC-62 melanoma) was > 100 µM. For the same compound, the TGI (MDA-MB-435) was > 100 µM, the TGI (M14 melanoma) was > 100 µM and the TGI (COLO 205 colon) was > 100 µM. For the same compound, the TGI (HCT-116 colon) was > 100 µM, the TGI (OVCAR-8 ovarian) was > 100 µM and the TGI (RPMI-8226 leukemia) was > 100 µM. For the same compound, the TGI (NCI-H460 lung) was > 100 µM, the TGI (UO-31 renal) was > 100 µM and the TGI (HCT-15 colon) was > 100 µM. For the same compound, the TGI (UACC-257 melanoma) was > 100 µM, the TGI (MCF7 breast) was > 100 µM and the TGI (SF-295 CNS) was > 100 µM. For the same compound, the TGI (DU-145 prostate) was > 100 µM, the TGI (SNB-19 CNS) was > 100 µM and the TGI (SN12C renal) was > 100 µM. For the same compound, the TGI (MDA-MB-231 breast) was 80.1 µM, the TGI (A549 NSCLC) was > 100 µM and the TGI (HS 578T breast) was > 100 µM. The TGI (HT29 colon) was > 100 µM, the TGI (CAKI-1 renal) was > 100 µM and the TGI (SK-MEL-28 melanoma) was > 100 µM. The TGI (MDA-N) was > 100 µM, the TGI (786-0 renal) was > 100 µM and the TGI (U251 CNS) was > 100 µM. For the same compound, the TGI (A498 renal) was > 100 µM, the TGI (HOP-62 NSCLC) was > 100 µM and the TGI (HOP-92 NSCLC) was > 100 µM. The TGI (IGROV1 ovarian) was > 100 µM.

For `COc1ccc(C2(O)C(S(=O)(=O)c3ccc(C)cc3)=Cc3ccc(OC)cc32)cc1` (configuration not stated), the TGI (NCI-H23 lung) was > 100 µM, the TGI (TK-10 renal) was > 100 µM and the TGI (NCI-H522 lung) was > 100 µM. The TGI (SW-620 colon) was > 100 µM, the TGI (LOX IMVI melanoma) was > 100 µM and the TGI (OVCAR-5 ovarian) was > 100 µM. The TGI (SR leukemia) was > 100 µM, the TGI (SNB-75 CNS) was 60.1 µM and the TGI (EKVX NSCLC) was > 100 µM. For the same compound, the TGI (SF-539 CNS) was > 100 µM, the TGI (PC-3 prostate) was > 100 µM and the TGI (SK-OV-3 ovarian) was > 100 µM. The TGI (SK-MEL-5 melanoma) was > 100 µM, the TGI (NCI-H226 lung) was > 100 µM and the TGI (ACHN renal) was > 100 µM. The TGI (KM12 colon) was > 100 µM, the TGI (NCI/ADR-RES ovarian) was > 100 µM and the TGI (T-47D breast) was > 100 µM. For the same compound, the TGI (SF-268 CNS) was > 100 µM, the TGI (MOLT-4 leukemia) was > 100 µM and the TGI (SK-MEL-2 melanoma) was > 100 µM. The TGI (HCC-2998 colon) was > 100 µM, the TGI (MDA-MB-435) was > 100 µM and the TGI (COLO 205 colon) was > 100 µM. The TGI (HCT-116 colon) was > 100 µM, the TGI (OVCAR-8 ovarian) was > 100 µM and the TGI (RPMI-8226 leukemia) was > 100 µM. The TGI (CCRF-CEM leukemia) was > 100 µM, the TGI (NCI-H460 lung) was > 100 µM and the TGI (HCT-15 colon) was > 100 µM. The TGI (UACC-257 melanoma) was > 100 µM, the TGI (MCF7 breast) was > 100 µM and the TGI (SF-295 CNS) was 97.4 µM. For the same compound, the TGI (DU-145 prostate) was > 100 µM, the TGI (SNB-19 CNS) was > 100 µM and the TGI (SN12C renal) was > 100 µM. The TGI (MDA-MB-231 breast) was > 100 µM, the TGI (A549 NSCLC) was > 100 µM and the TGI (K-562 leukemia) was > 100 µM. The TGI (HS 578T breast) was > 100 µM, the TGI (HT29 colon) was > 100 µM and the TGI (SK-MEL-28 melanoma) was > 100 µM. For the same compound, the TGI (MDA-N) was > 100 µM, the TGI (786-0 renal) was > 100 µM and the TGI (U251 CNS) was > 100 µM. The TGI (A498 renal) was > 100 µM, the TGI (HOP-62 NSCLC) was 77.2 µM and the TGI (HL-60(TB) leukemia) was > 100 µM. The TGI (IGROV1 ovarian) was > 100 µM.

In the case of `CCN(CC)CCOCCn1c2c(c3ccccc31)CCCC2`, the TGI (NCI-H23 lung) was > 100 µM, the TGI (TK-10 renal) was 38.5 µM and the TGI (SW-620 colon) was 36.8 µM. It also gave a TGI (LOX IMVI melanoma) of 37.3 µM, a TGI (MALME-3M melanoma) of 29.3 µM and a TGI (OVCAR-5 ovarian) of 41.3 µM. The TGI (SR leukemia) was 35.5 µM, the TGI (SNB-75 CNS) was > 100 µM and the TGI (EKVX NSCLC) was > 100 µM. For the same compound, the TGI (SF-539 CNS) was 32 µM, the TGI (OVCAR-4 ovarian) was > 100 µM and the TGI (OVCAR-3 ovarian) was > 100 µM. For the same compound, the TGI (PC-3 prostate) was 59.5 µM, the TGI (SK-OV-3 ovarian) was 86.3 µM and the TGI (SK-MEL-5 melanoma) was 26.3 µM. For the same compound, the TGI (NCI-H226 lung) was 55.2 µM, the TGI (ACHN renal) was 41.9 µM and the TGI (KM12 colon) was > 100 µM. For the same compound, the TGI (NCI/ADR-RES ovarian) was 33.3 µM, the TGI (T-47D breast) was 52.9 µM and the TGI (SF-268 CNS) was > 100 µM. It also gave a TGI (MOLT-4 leukemia) of 35.5 µM, a TGI (SK-MEL-2 melanoma) of 29.6 µM and a TGI (HCC-2998 colon) of 31 µM. The TGI (UACC-62 melanoma) was 32.4 µM, the TGI (MDA-MB-435) was 32.7 µM and the TGI (M14 melanoma) was 31.3 µM. For the same compound, the TGI (COLO 205 colon) was 39.1 µM, the TGI (HCT-116 colon) was 29.4 µM and the TGI (OVCAR-8 ovarian) was > 100 µM. It also gave a TGI (RPMI-8226 leukemia) of 51.1 µM, a TGI (CCRF-CEM leukemia) of 50.9 µM and a TGI (NCI-H460 lung) of 39.1 µM. The TGI (UO-31 renal) was 36.8 µM, the TGI (HCT-15 colon) was 34.5 µM and the TGI (UACC-257 melanoma) was 48.7 µM. For the same compound, the TGI (MCF7 breast) was 35.2 µM, the TGI (SF-295 CNS) was > 100 µM and the TGI (DU-145 prostate) was 91.1 µM. It also gave a TGI (SN12C renal) of 35.5 µM, a TGI (MDA-MB-231 breast) of 35.1 µM and a TGI (A549 NSCLC) of 72.2 µM. It also gave a TGI (K-562 leukemia) of 30.2 µM, a TGI (HS 578T breast) of 56.5 µM and a TGI (HT29 colon) of 90.2 µM. It also gave a TGI (SK-MEL-28 melanoma) of 40 µM, a TGI (MDA-N) of 31.1 µM and a TGI (786-0 renal) of 30 µM. It also gave a TGI (U251 CNS) of 49.3 µM, a TGI (HOP-62 NSCLC) of 31.5 µM and a TGI (HOP-92 NSCLC) of 68.9 µM. The TGI (HL-60(TB) leukemia) was 24.6 µM and the TGI (IGROV1 ovarian) was 60 µM.

From PubChem BioAssay (NCI)
